{"source": "patent US7662864B2", "about": "“Solution polymerization processes to prepare a polymer that degrades to release a physiologically active agent” (Rutgers, The State University of New Jersey, priority 2003, dated 2010)", "key": {"[1]": {"test": "Plasma diflunisal in rats after subcutaneous polydiflunisal microspheres", "format": "in vivo", "settings": "single oral dose", "excerpt": "Processes for making nanoparticle formulations are also known in the art, and need not be fully described in this patent. The surface eroding property of polymers such as polydiflunisal makes for solid, non-porous particles, e.g. nano- and micro-spheres, useful for sustained drug delivery, and their release duration may be controlled by varying particle diameter, e.g. larger microparticles biodegrade more slowly than smaller ones. Nano- and microparticles for pharmaceutical formulations may be designed to deliver an agent(s) or compound(s) incorporated into the polymer backbone and optionally an agent(s) blended, appended to, or dispersed in the polymer. […] Microparticle formulations of about 1, 2, 5, 7.5, 10, 25, 50 to about 10, 15, 30, 50, 75, 100, 250 μm are suitable for use in a pharmaceutical, veterinary or other type of formulations. Similarly, nanoparticle formulations may be administered for various applications, having a particle size about 1, 2, 5, 10 to about 15, 20, 30, 50, 100, 250, 500 nm, or various ranges between any two of these values. […] While the injection of a drug or biological agent carried by a polymer of the invention, e.g. a polyNSAID, may be expected to generate significant drug, e.g. NSAID, concentrations in tissues near the injection site, their systemic levels in most cases will remain less than about […], which are far below therapeutic levels. […]"}, "[2]": {"settings": "cited from earlier work"}, "[3]": {"settings": "cited from earlier work; for Plasma Levels (Anti-Inflammatory Effectiveness): Clinical Use"}, "Rat": {"system": "Rat", "settings": "in vivo; cited from earlier work"}, "[4]": {"system": "chronically-inflamed tissue", "settings": "cited from earlier work"}}, "note": "Read-outs that look alike come from different tables or passages of the source.", "data": [{"smiles": "O=C(O)c1cc(-c2ccc(F)cc2F)ccc1O", "note": "[Diflunisal, 5-(2,4-difluorophenyl)-salicylic acid]", "values": [{"measurement": "course of drug level", "setting": "[1]", "value": "declined rapidly"}, {"measurement": "Water Solubility", "setting": "[2]", "value": "Very Low"}, {"measurement": "Plasma Levels (Anti-Inflammatory Effectiveness)", "setting": "[3]", "value": "50 to 190", "unit": "µg/mL"}, {"measurement": "No. Metabolites", "setting": "[3]; in vivo", "value": 2}, {"measurement": "Plasma half-life", "setting": "[3]; in vivo", "value": "8 to 12", "unit": "h"}, {"measurement": "Where Metabolized", "setting": "[3]; in vivo", "value": "Liver, Intestine"}]}, {"smiles": "O=C(O)c1ccccc1O", "note": "[Salicylic Acid]", "values": [{"measurement": "Water Solubility", "setting": "[2]", "value": "High"}, {"measurement": "Plasma Levels (Anti-Inflammatory Effectiveness)", "setting": "[3]", "value": "150 to 300", "unit": "µg/mL"}]}, {"smiles": "O=C(O)CCCCCCCCC(=O)O", "note": "[Sebacic Acid]", "values": [{"measurement": "Rat Oral LD50", "setting": "Rat", "value": "14,470 mg/kg"}]}, {"smiles": "CN1CC[C@]23c4c5ccc(O)c4O[C@H]2[C@@H](O)C=C[C@H]3[C@H]1C5", "note": "[morphine]", "values": [{"measurement": "pain relief", "setting": "[4]; 1 mg injected into chronically-inflamed gum tissue", "value": "profound pain relief"}, {"measurement": "pain relief", "setting": "[4]; 3 mg intra-articular injection in RA patients", "value": "pain relief similar to that of 4 mg dexamethasone"}]}]}
